The source of these data is US8198279B2, “Pyrido[2,3-b]pyrazin-8-substituted compounds and their use” (Institute of Cancer Research: Royal Cancer Hospital (The), priority 2007, dated 2012).

For assay [1], the target named is T1, B-RAF (Homo sapiens, UniProt P15056, V600E).
T1 construct: made in house
The assay can be described thus: DELFIA Kinase Assay. To be noted: 100 μM ATP, GST-MEK substrate. The class given is biochemical. In short, it runs like this: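 Recombinant B-RAF (V600E) with GST-MEK substrate was preincubated with compound for 10 min at room temperature, then reacted with 100 μM ATP for 45 min on milk-preblocked wells, with antibody detection by DELFIA europium fluorescence. Response is taken as % of DMSO control after empty-vector blank subtraction; IC50 is from a variable-slope sigmoidal fit, mean of usually three independent runs.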

For assay [2], the system named is pERK. The assay can be described thus: Cell Based Phospho-ERK Assay. The conditions noted are these: 6 h, 6 hours incubation with test compound. The protocol: Biological Methods—Cell Based Phosho-ERK Assay
Compounds were assessed using a cell-based assay which was performed according to the following protocol.
Plate out 16,000 cells/well in 99 μL medium in a 96-well plate.
• 1. Add 1 μL inhibitor to the cells (total […] solution). • 2. Incubate the cells with test compound for 6 hours at 37° C. • 3. Aspirate off the solution from all of the wells. • 4. Fixate the cells with 100 μL 4% formaldehyde/0.25% Triton X-100 PBS per well. • 5. Incubate the plate for 1 hour at 4° C. • 6. Aspirate off the fixing solution and add 300 μL TBS per well. • 7. Leave the plate overnight at 4° C. Day 2: • 1. Wash the plate 2× with 200 μL PBS per well. • 2. Block with 100 μL 5% dried milk in TBS. • 3. Incubate the plate for 20 minutes at 37° C. • 4. Wash the plate 2× with 0.1% tween/H2O. • 5. Add 50 μL of 3 μg/mL primary antibody pERK (Sigma M8159), diluted in 5% milk powder/TBS, to each well. • 6. Incubate the plate for 2 hours at 37° C. • 7. Wash the plate 3× with 0.1% tween/H2O. • 8. Add 50 μL of 0.45 μg/mL secondary Europium-labelled anti-mouse antibody (Perkin Elmer) to each well. • 9. Incubate the plate for 1 hour at 37° C. • 10. Wash the plate 3× with 0.1% tween/H2O. • 11. Add 100 μL enhancement solution (Perkin Elmer) to each well. • 12. Leave the plate for approximately 10 minutes at room temperature before gently shaking the plate. • 13. Read Europium Time Resolved Fluorescence in Victor2. • 14. Wash the plate 2× with 0.1% tween/H2O. • 15. Measure the protein concentration with BCA (Sigma) by adding 200 μL of solution per well. • 16. Incubate the plate for 30 minutes at 37° C. • 17. Read absorbance levels at 570 nm in a plate reader.
Note that Europium counts are normalised for protein levels by dividing counts by absorbance.
Values for the blank (no cells) are subtracted from all values. The DMSO controls are set as 100% activity and assay points (the response) are calculated as a percentage of the DMSO control. Data are plotted using Graphpad Prism software and a non-linear regression line is calculated using a variable slope sigmoidal dose-response equation (Y=Bottom+(Top−Bottom)/(1+10^((LogEC50−X)*HillSlope)) where X is the logarithm of concentration. Y is the response). The IC50 generated by this procedure is the concentration of the drug that produces a percentage control fluorescence value midway between the saturation, and zero-effect plateaus. Three independent assays are usually performed and the mean IC50 is reported.

The test system of assay [3] is WM266.4 melanoma cells. The assay can be described thus: SRB Cell Proliferation Assay (SRB GI50). The assay is classed as cell-based. To be noted: Homo sapiens, WM 266-4, 144 h, 6 days growth. The protocol:
Biological Methods —SRB Cell Proliferation Assay (SRB GI50)
Cultures of WM266.4 melanoma cells are routinely cultured in DMEM/10% foetal bovine serum, at 37° C., in 5% CO2 water saturated atmosphere. Cultures are maintained in exponential growth phase by sub-culturing before having become confluent (3-5 day intervals). Single cell suspensions are prepared by harvesting an 80 cm^2 tissue culture flask with 5 mL commercial trypsin EDTA. After 5 minutes, the detached cells are mixed with 5 mL fully complemented culture medium and centrifugally pelleted (1000 rpm for 7 minutes). After aspirating the supernatant, the cell pellet is re-suspended in 10 mL fresh medium and the cells fully disaggregated by drawing the whole volume up/down 5 times through a 19-gauge needle. The concentration of the cells is determined using a haemocytometer (1/10 dilution). A suitable volume to give at least a 2-fold excess for the number of tests being conducted, typically 100-200 mL, is prepared by diluting the cell suspension to 10,000/mL, and 100 μL/well dispensed into 96 well plates using a programmable 8-channel peristaltic pump, giving 1000 cells/well, leaving column 12 blank. The plates are returned to the incubator for 24 hours to allow the cells to re-attach.
The compounds being tested are prepared at 20 mM in dimethylsulphoxide. Aliquots (200 μL) are diluted into 20 mL culture medium giving 200 μM, and 10 serial dilutions of 3× performed by transferring 5 mL to 10 mL. Aliquots (100 μL) of each dilution are added to the wells, using an 8-channel pipettor, thus performing a final further 2× dilution, and giving doses ranging from 100 μM to 0.005 μM. Column 11 receives plain culture medium only. Each compound is tested in quadruplicate, each replicate being the average of four wells, and two plates per compound.
After a further 6 days growth, the plates are emptied, and the cells are fixed in 10% trichloroacteic acid for 10 minutes on ice. After thorough rinsing in running tap water, the plates are dried, and stained by adding 50 μL of a solution of 0.1% sulphorhodamine-B in 1% acetic acid, for 10 minutes at room temperature. The stain is poured out and the plates thoroughly rinsed under a stream of 1% acetic acid, thus removing unbound stain, and dried. The bound stain is taken into solution by addition of 150 μL Tris buffer pH 8, followed by 10 minutes on a plate-shaker (approximately 500 rpm). The absorbance at 540 nm in each well (being proportional to the number of cells present) is determined using a plate reader.
After averaging the results in rows A-D and E-H, the blank value (row 12) is subtracted, and results expressed as percentage of the untreated value (row 11). […] The GI50 generated by this procedure is the concentration of the drug that produces a percentage control A540 midway between the saturation, and zero-effect plateaus.

SMILES strings stand for the structures.

T1 sequence (P15056 whole entry V600E): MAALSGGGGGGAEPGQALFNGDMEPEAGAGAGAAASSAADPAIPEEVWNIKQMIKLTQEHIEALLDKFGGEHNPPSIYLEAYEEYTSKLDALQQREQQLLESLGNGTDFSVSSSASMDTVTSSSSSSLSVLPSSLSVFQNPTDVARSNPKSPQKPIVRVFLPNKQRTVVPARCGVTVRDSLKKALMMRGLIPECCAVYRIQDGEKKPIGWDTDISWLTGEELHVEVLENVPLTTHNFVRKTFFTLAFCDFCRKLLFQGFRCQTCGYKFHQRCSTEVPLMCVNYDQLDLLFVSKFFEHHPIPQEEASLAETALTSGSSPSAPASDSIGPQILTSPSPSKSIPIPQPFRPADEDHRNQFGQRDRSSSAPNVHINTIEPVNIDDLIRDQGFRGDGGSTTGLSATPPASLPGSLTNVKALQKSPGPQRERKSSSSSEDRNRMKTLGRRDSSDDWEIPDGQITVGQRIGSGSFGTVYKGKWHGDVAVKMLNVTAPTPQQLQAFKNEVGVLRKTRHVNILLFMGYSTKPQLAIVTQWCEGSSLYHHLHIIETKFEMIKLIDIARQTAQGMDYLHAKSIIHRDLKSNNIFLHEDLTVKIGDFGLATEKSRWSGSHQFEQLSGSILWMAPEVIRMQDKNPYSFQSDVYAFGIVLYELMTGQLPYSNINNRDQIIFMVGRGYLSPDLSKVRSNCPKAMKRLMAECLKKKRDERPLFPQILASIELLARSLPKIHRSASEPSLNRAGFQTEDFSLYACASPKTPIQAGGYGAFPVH

A word on the IC50: it is the midpoint of a concentration-inhibition curve. Read a low IC50 as greater potency. One may read the GI50 as the concentration at which growth is held to half of that of the control. Low readings indicate greater sensitivity of the cells, high ones lower sensitivity of the cells. For `CC(C)(C)c1cc(NC(=O)Nc2cccc(Oc3ccnc4[nH]c(=O)cnc34)c2)n(-c2ccccc2)n1` [AA-075, 1-(3-tert-butyl-1-phenyl-1H-pyrazol-5-yl)-3-(3-(3-oxo-3,4-dihydropyrido[2,3-b]pyrazin-8-yloxy)phenyl)urea], the IC50 in assay [1] is under 100 nM; in assay [2], under 1000 nM. The same molecule returned a GI50 in assay [3] of under 1000 nM.
`O=C(Nc1ccc(Oc2ccnc3[nH]c(=O)cnc23)cc1F)Nc1cc(C(F)(F)F)ccc1Oc1cccnc1` [AA-093, 1-(2-fluoro-4-(3-oxo-3,4-dihydropyrido[3,2-b]pyrazin-8-yloxy)phenyl)-3-(2-(pyridin-3-yloxy)-5-(trifluoromethyl)phenyl)urea]: the IC50 in assay [1] is under 100 nM; in assay [2] it was under 1000 nM. In assay [3], this molecule returned a GI50 of 1000 to 10000 nM.
In the same order, the values of `CC(C)(C)c1cc(NC(=O)Nc2ccc(Oc3ccnc4ncc(=O)[nH]c34)cc2F)n(-c2ccccc2)n1` [AA-089, 1-(3-tert-butyl-1-phenyl-1H-pyrazol-5-yl)-3-(2-fluoro-4-(2-oxo-1,2-dihydropyrido[3,2-b]pyrazin-8-yloxy)phenyl)urea] are 100 to 1000 nM, under 1000 nM and under 1000 nM.
In the same order, the values of `O=C(Nc1ccc(Oc2ccnc3[nH]c(=O)cnc23)c(F)c1)Nc1cc(C(F)(F)F)ccc1F` [AA-086, 1-(3-fluoro-4-(3-oxo-3,4-dihydropyrido[2,3-b]pyrazin-8-yloxy)phenyl)-3-(2-fluoro-5-(trifluoromethyl)phenyl)urea] are under 100 nM, 1000 to 10000 nM and 1000 to 10000 nM.
In the same order, the values of `Cc1ccc(-n2nc(C(C)(C)C)cc2NC(=O)Nc2ccc(Oc3ccnc4[nH]c(=O)c(N)nc34)cc2F)cc1` [AA-057, 1-(4-(2-amino-3-oxo-3,4-dihydropyrido[2,3-b]pyrazin-8-yloxy)-2-fluorophenyl)-3-(3-tert-butyl-1-p-tolyl-1H-pyrazol-5-yl)urea] are 100 to 1000 nM, under 1000 nM and under 1000 nM.
With `CC(C)(C)c1cc(NC(=O)Nc2ccc(Oc3ccnc4[nH]c(=O)cnc34)cc2F)n(-c2ccc(S(C)(=O)=O)cc2)n1` [AA-090, 1-(3-tert-butyl-1-(4-(methylsulfonyl)phenyl)-1H-pyrazol-5-yl)-3-(2-fluoro-4-(3-oxo-3,4-dihydropyrido[3,2-b]pyrazin-8-yloxy)phenyl)urea], the IC50 is 100 to 1000 nM in assay [1] and under 1000 nM in assay [2]. Further, the GI50 in assay [3] is under 1000 nM.
As to `C#CCn1nc(C(C)(C)C)cc1NC(=O)Nc1ccc(Oc2ccnc3[nH]c(=O)cnc23)cc1F` [AA-096], the IC50 in assay [1] is under 100 nM; in assay [2], under 1000 nM. The same molecule gave a GI50 in assay [3] of 1000 to 10000 nM.
Regarding `O=C(Nc1cc(C(F)(F)F)ccc1F)Nc1ccc(Oc2ccnc3nc(C(F)(F)F)c(=O)[nH]c23)c2ccccc12` [AA-083, 1-(2-fluoro-5-(trifluoromethyl)phenyl)-3-(4-(2-oxo-3-(trifluoromethyl)-1,2-dihydropyrido[2,3-b]pyrazin-8-yloxy)naphthalen-1-yl)urea], the values for the IC50 in assay [1] and in assay [2] were 100 to 1000 nM and 1000 to 10000 nM, respectively. The molecule further registered a GI50 in assay [3] of 1000 to 10000 nM.
For the molecule `COCn1nc(C(C)(C)C)cc1NC(=O)Nc1ccc(Oc2ccnc3[nH]c(=O)cnc23)cc1F` [AA-098, 1-(3-Tert-butyl-1-(methoxymethyl)-1H-pyrazol-5-yl)-3-(2-fluoro-4-(3-oxo-3,4-dihydropyrido[3,2-b]pyrazin-8-yloxy)phenyl)urea], the IC50 is under 100 nM in assay [1] and 1000 to 10000 nM in assay [2]. Besides, the GI50 in assay [3] fell in the range of 1000 to 10000 nM.
As to `CC(C)(C)c1cc(NC(=O)Nc2ccc(Oc3ccnc4[nH]c(=O)c(=O)[nH]c34)cc2F)n(-c2ccc(S(C)(=O)=O)cc2)n1` [AA-092, 1-(3-tert-butyl-1-(4-(methylsulfonyl)phenyl)-1H-pyrazol-5-yl)-3-(4-(2,3-dioxo-1,2,3,4-tetrahydropyrido[3,2-b]pyrazin-8-yloxy)-2-fluorophenyl)urea], the IC50 in assay [1] fell in the range of 100 to 1000 nM; in assay [2], 1000 to 10000 nM. Moreover, the GI50 in assay [3] is 1000 to 10000 nM.
Take `CC(C)(C)c1cc(NC(=O)Nc2ccc(Oc3ccnc4[nH]c(=O)cnc34)cc2F)n(CC2CC2)n1` [AA-097, 1-(3-Tert-butyl-1-(cyclopropylmethyl)-1H-pyrazol-5-yl)-3-(2-fluoro-4-(3-oxo-3,4-dihydropyrido[3,2-b]pyrazin-8-yloxy)phenyl)urea]: the IC50 is under 100 nM in assay [1] and under 1000 nM in assay [2]. In assay [3], this molecule came in with a GI50 of 1000 to 10000 nM.
In the same order, the values of `C=CCn1nc(C(C)(C)C)cc1NC(=O)Nc1ccc(Oc2ccnc3[nH]c(=O)cnc23)cc1F` [AA-095, 5-[(4-amino-2-fluorophenyl-oxy)carbonylamino-5-(1-N-allyl-3-t-butyl-imidazolyl)]-pyridin-[2, 3]-3-pyrazin-2-one] are under 100 nM, under 1000 nM and 1000 to 10000 nM.
For the molecule `COc1ccc(-n2nc(C(C)(C)C)cc2NC(=O)Nc2ccc(Oc3ccnc4[nH]c(=O)cnc34)cc2F)cn1` [AA-062, 1-(3-tert-butyl-1-(6-methoxypyridin-3-yl)-1H-pyrazol-5-yl)-3-(2-fluoro-4-(3-oxo-3,4-dihydropyrido[2,3-b]pyrazin-8-yloxy)phenyl)urea], the IC50 in assay [1] was under 100 nM; in assay [2], under 1000 nM. Moreover, the GI50 in assay [3] is under 1000 nM.
Consider `Cc1ccc(-n2nc(C(C)(C)C)cc2NC(=O)Nc2ccc(Oc3ccnc4nc(CBr)c(=O)[nH]c34)cc2F)cc1` [AA-058, 1-(4-(3-(bromomethyl)-2-oxo-1,2-dihydropyrido[2,3-b]pyrazin-8-yloxy)-2-fluorophenyl)-3-(3-tert-butyl-1-p-tolyl-1H-pyrazol-5-yl)urea], for which the IC50 lay in the range of 100 to 1000 nM in assay [1] and 1000 to 10000 nM in assay [2]. In assay [3], this molecule showed a GI50 of 1000 to 10000 nM.
In the case of `CC(C)(C)c1cc(NC(=O)Nc2ccc(Oc3ccnc4nc(N5CCOCC5)cnc34)cc2F)n(-c2ccccc2)n1` [AA-071, 1-(3-Tert-butyl-1-phenyl-1H-pyrazol-5-yl)-3-(2-fluoro-4-(3-morpholinopyrido[3,2-b]pyrazin-8-yloxy)phenyl)urea], the IC50 is 100 to 1000 nM in assay [1] and under 1000 nM in assay [2]. The molecule further showed a GI50 in assay [3] of under 1000 nM.
